Data published in patent publication US9040554B2, “Solid forms of nematocidal sulfonamides” (priority 2011, dated 2015).

Legend:
[1] = Relative stability experiments: non-competitive and competitive interconversion of crystal forms of Compound 1; format: physicochemical; conditions: for crystal form of the resulting material (pXRD, DSC, TGA, 1H-NMR): non-competitive, single starting form, refluxed in deionized water at about 95° C. for 3 hours
Experimental: The relative stability of various crystal forms of Compound 1 were subjected to non-competitive and competitive interconversion experiments.
In Example 12a, Form A of Compound 1 (0.4 g) prepared according to Preparation Example 5c was refluxed in deionized water (4 mL) at about 95° C. for 3 hours. The slurry was cooled to 25-30° C., filtered, suction dried for 1 hour and dried in a vacuum oven at 70° C. and 8 kPa absolute pressure for 12 hours.
(§1) In Example 12b, Form B of Compound 1 (0.4 g) prepared according to Preparation Example 5f was refluxed in deionized water (4 mL) at about 95° C. for 3 hours. The slurry was cooled to 25-30° C., filtered, suction dried for 1 hour and dried in a vacuum oven at 70° C. and 8 kPa absolute pressure for 12 hours. Analysis by pXRD, DSC, TGA and ^1H-NMR of the resulting material indicated Form A.
as §1, with “12c,” for “12b,”, “D” for “B”, “5g” for “5f”
as §1, with “12d,” for “12b,”, “TS” for “B”, “(1” for “(0.4”, “1” for “5f”, “(10” for “(4”, “65°” for “70°”
as §1, with “12e, Form A (0.6 g) and” for “12b,”, “B (0.6 g)” for “B”, “1” for “1 (0.4 g)”, “Examples 5c and 5f, respectively, were blended as solids and” for “Example 5f was”, “(12” for “(4”, “65°” for “70°”
(§2) In Example 12f, Form B (0.6 g) and Form D (0.6 g) of Compound 1 prepared according to Preparation Examples 5f and 5g, respectively, were blended as solids and refluxed in deionized water (12 mL) at about 95° C. for 3 hours. The slurry was cooled to 25-30° C., filtered, suction dried for 1 hour and dried in a vacuum oven at 65° C. and 8 kPa absolute pressure for 12 hours. Analysis by pXRD, DSC and ^1H-NMR of the resulting material indicated Form A.
as §2, with “12g,” for “12f,”, “A” for “B”, “5c” for “5f”
as §2, with “12h, Form A (0.25 g),” for “12f,”, “(0.25 g), Form D (0.25” for “(0.6”, “TS (0.25” for “D (0.6”, “5c, 5f, 5g,” for “5f”, “1,” for “5g,”, “(10” for “(12”
In Example 12i, Form A (0.25 g), Form B (0.25 g), Form D (0.25 g) and mixed Forms A and B (0.25 g) of Compound 1 prepared according to Preparation Examples 5c, 5f, 5g and 2, respectively, were blended as solids and refluxed in deionized water (10 mL) at about 95° C. for 3 hours. The slurry was cooled to 25-30° C., filtered, suction dried for 1 hour and dried in a vacuum oven at 65° C. and 8 kPa absolute pressure for 12 hours. Analysis by pXRD, DSC and ^1H-NMR of the resulting material indicated Form A. […]

[2] = Stability experiment for polymorph Form A of Compound 1 (stability chamber); format: physicochemical
Experimental: The physical stability of Form A of Compound 1 was determined as follows. Compound 1 prepared according to Preparation Example 3 was analyzed by pXRD, DSC, HPLC and ^1H-NMR and found to be of pure crystal Form A of 99.9% purity (by HPLC peak area at 230 nm detection wavelength). An aliquot of the sample (3.0 g) was placed in a primary polyethylene bag, the primary bag was flushed with nitrogen gas and sealed. The primary polyethylene bag was then placed in a secondary polyethylene bag which was again flushed with nitrogen gas and a silica gel sachet was placed between the inner and the outer bag. The double bagged material was then placed in a triple laminated aluminum pouch and placed in a stability chamber at 40° C. for 30 days. Analysis by HPLC and ^1H-NMR of the resulting material indicated pure Form A of Compound 1 of 99.9% purity (by HPLC peak area at 230 nm).

[3] = Example 12h, competitive: Forms A, B, D and TS blended, deionized water, about 95° C., 3 hours
[4] = Example 12i, competitive: Forms A, B, D and mixed Forms A and B blended, deionized water, about 95° C., 3 hours
[5] = Example 12j, competitive: Forms A, B, D and mixed Forms A and B blended, methanol, about 55° C., 3 hours
[6] = Example 12e, competitive: Form A + Form B blended, deionized water, about 95° C., 3 hours
[7] = Example 12f, competitive: Form B + Form D blended, deionized water, about 95° C., 3 hours
[8] = Example 12k, competitive: Forms A, B and D blended, deionized water, about 55° C., 168 hours
[9] = Example 12g, competitive: Form A + Form D blended, deionized water, about 95° C., 3 hours

Compound	crystal form of the resulting material [1, 3]	crystal form of the resulting material (pXRD, DSC, TGA, 1H-NMR) [1]	crystal form of the resulting material [1, 4]	crystal form of the resulting material [1, 5]	crystal form of the resulting material ([1]; Example 12l: slurry in deionized water stirred at 25° C. for about 168 hours)	crystal form of the resulting material [1, 6]	crystal form of the resulting material [1, 7]	crystal form of the resulting material [1, 8]	crystal form of the resulting material [1, 9]	relative thermodynamic stability of the solid forms, in words ([1]; under the conditions studied)	crystal form after storage (pXRD and DSC) ([2]; 40° C. for 30 days)	purity after storage (HPLC peak area at 230 nm) ([2]; 40° C. for 30 days, sealed under nitrogen in double polyethylene bag and aluminum pouch) [%]	physical and chemical stability, in words ([2]; pure solid form)
COc1ccc(Cl)c(S(=O)(=O)NC(=O)c2cn3cc(C(F)(F)F)cc(Cl)c3n2)c1 [Form TS, 8-chloro-N-[(2-chloro-5-methoxyphenyl)sulfonyl]-6-(trifluoromethyl)-imidazo[1,2-a]pyridine-2-carboxamide]	Form A	Form A											
COc1ccc(Cl)c(S(=O)(=O)NC(=O)c2cn3cc(C(F)(F)F)cc(Cl)c3n2)c1 [mixed Forms A and B, 8-chloro-N-[(2-chloro-5-methoxyphenyl)sulfonyl]-6-(trifluoromethyl)-imidazo[1,2-a]pyridine-2-carboxamide]			Form A	Form A	Form A								
COc1ccc(Cl)c(S(=O)(=O)NC(=O)c2cn3cc(C(F)(F)F)cc(Cl)c3n2)c1 [Form B, 8-chloro-N-[(2-chloro-5-methoxyphenyl)sulfonyl]-6-(trifluoromethyl)-imidazo[1,2-a]pyridine-2-carboxamide]	Form A	Form A	Form A	Form A		Form A	Form A	Form A					
COc1ccc(Cl)c(S(=O)(=O)NC(=O)c2cn3cc(C(F)(F)F)cc(Cl)c3n2)c1 [Form A, 8-chloro-N-[(2-chloro-5-methoxyphenyl)sulfonyl]-6-(trifluoromethyl)-imidazo[1,2-a]pyridine-2-carboxamide]	Form A	remained unchanged, i.e. Form A	Form A	Form A		Form A		Form A	Form A	most thermodynamically stable polymorph form	pure polymorph Form A	99.9	physically and chemically stable
COc1ccc(Cl)c(S(=O)(=O)NC(=O)c2cn3cc(C(F)(F)F)cc(Cl)c3n2)c1 [Form D, 8-chloro-N-[(2-chloro-5-methoxyphenyl)sulfonyl]-6-(trifluoromethyl)-imidazo[1,2-a]pyridine-2-carboxamide]	Form A	Form A	Form A	Form A			Form A	Form A	Form A				
